Experimental data as given in PubChem BioAssay AID1259246 (Broad Institute, 2017).
Several values for one entry are separate records, joined by “and”; a condition that tells them apart may be missing. Equal values may be shown once. Records with an inconclusive call do not appear. Activity calls are given as the source filed them.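 How the source made its calls: active means valid dose-response fit whose half-maximal growth-inhibiting concentration is at or below a set limit above the top tested dose; inconclusive means flat fit with effect between 30 and 70%, or poor fit; inactive means half-maximal concentration above a set limit.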

Key:
[1] = system: Clostridioides difficile clinical isolate growth, OD600, 24 h; experiment: antibacterial activity against Clostridioides difficile – 10-point retest, dose response (AID 1259246)
[2] = as above; settings: Clostridioides difficile clinical isolate growth, OD600, 24 h

SMILES: CO[C@H]1CN(C)C(=O)c2ccc(NC(=O)Nc3cc(Cl)cc(Cl)c3)cc2OC[C@@H](C)NC[C@@H]1C
- IC50 [1]: 34.1 µM
- activity change, negative = inhibition ([2]; at 30 µM (top of the series)): 32.6% (inactive)

SMILES: C[C@@H]1CN([C@@H](C)CO)C(=O)Cc2cc(NC(=O)CCCN(C)C)ccc2O[C@@H]1CN(C)Cc1ccc(-c2ccccc2)cc1
- IC50 [1]: 7.29 µM
- activity change, negative = inhibition ([2]; at 110 µM (top of the series)): 88.3% (inactive)

SMILES: O=C(NCC[C@H]1CC[C@@H](NC(=O)C2CC2)[C@@H](CO)O1)Nc1ccc(C(F)(F)F)cc1
- IC50 [1]: 8.52 µM
- activity change, negative = inhibition ([2]; at 120 µM (top of the series)): 4.63% (inactive)

SMILES: O=C(NCC[C@@H]1CC[C@H](NC(=O)C2CC2)[C@@H](CO)O1)Nc1ccc(C(F)(F)F)cc1
- IC50 [1]: 8.56 µM
- activity change, negative = inhibition ([2]; at 120 µM (top of the series)): 2.87% (inactive)

SMILES: CO[C@@H]1CN(C)C(=O)c2ccc(NC(=O)Nc3cc(Cl)cc(Cl)c3)cc2OC[C@H](C)NC[C@H]1C
- IC50 [1]: 153 µM and 36.2 µM

SMILES: C[C@@H]1CN([C@H](C)CO)S(=O)(=O)c2ccc(/C=C/c3ccccc3)cc2O[C@H]1CN(C)Cc1ccc(C(=O)O)cc1
- IC50 [1]: 6.11 µM

SMILES: CO[C@H]1CN(C)C(=O)c2cc(NC(=O)Nc3cc(Cl)cc(Cl)c3)ccc2OC[C@@H](C)NC[C@@H]1C
- IC50 [1]: 33.9 µM and 6.17 µM

SMILES: C[C@@H]1CN([C@@H](C)CO)C(=O)c2cccc(NC(=O)Nc3ccc(C(F)(F)F)cc3)c2O[C@@H]1CN(C)Cc1ccccc1
- IC50 [1]: 2.69 µM

SMILES: C[C@@H]1CN([C@@H](C)CO)S(=O)(=O)c2ccc(C#CCC3CCCC3)cc2O[C@H]1CN(C)Cc1ccc(C(=O)O)cc1
- IC50 [1]: 32.4 µM

SMILES: CO[C@@H](CN(C)C(=O)C1CCOCC1)[C@@H](C)CN(C(=O)Nc1ccc(C(F)(F)F)cc1)[C@H](C)CO
- IC50 [1]: 4.1 µM

SMILES: Cc1ccc(S(=O)(=O)N[C@H]2CC[C@@H](CCNC(=O)Nc3ccc(Cl)cc3)O[C@H]2CO)cc1
- IC50 [1]: > 270 µM (inactive)

SMILES: CO[C@H]1CN(C)C(=O)c2ccc(NC(=O)Nc3ccc(Cl)c(Cl)c3)cc2OC[C@H](C)NC[C@@H]1C
- IC50 [1]: 37.6 µM

SMILES: COc1ccc(CN(C)C[C@H]2OCCCC[C@H](C)Oc3ccc(NC(=O)Nc4ccc(C(F)(F)F)cc4)cc3C(=O)N([C@@H](C)CO)C[C@@H]2C)cc1
- IC50 [1]: 67.7 µM

SMILES: O=C(C[C@@H]1CC[C@H]2[C@@H](COC[C@H](O)CN2S(=O)(=O)c2ccccc2)O1)NCC1CCCCC1
- IC50 [1]: 35.1 µM

SMILES: CN(C)CC(=O)N1[C@H](C#N)[C@H](c2ccc(C#CC3CCCCC3)cc2)[C@@H]1CO
- IC50 [1]: 65.2 µM

SMILES: C[C@H](CO)N1C[C@H](C)[C@@H](CN(C)Cc2ccc(Oc3ccccc3)cc2)Oc2ccc(NC(=O)CCCN(C)C)cc2CC1=O
- IC50 [1]: 64.1 µM

SMILES: COc1ccc(S(=O)(=O)N(C)C[C@H]2Oc3ccc(NC(=O)Nc4ccc(C(F)(F)F)cc4)cc3C(=O)N([C@@H](C)CO)C[C@@H]2C)cc1
- IC50 [1]: 51.2 µM

SMILES: CO[C@@H]1CN(C)C(=O)c2cc(NC(=O)Nc3ccc(Cl)c(Cl)c3)ccc2OC[C@H](C)NC[C@H]1C
- IC50 [1]: 16 µM and 11.3 µM

SMILES: C[C@@H]1CN([C@H](C)CO)C(=O)c2cc(NC(=O)Nc3cccc4ccccc34)ccc2O[C@@H](C)CCCCO[C@H]1CN(C)Cc1ccccc1
- IC50 [1]: 68.4 µM

SMILES: CO[C@H](CN(C)S(=O)(=O)c1cn(C)cn1)[C@@H](C)CN(C(=O)Nc1ccc(C(F)(F)F)cc1)[C@H](C)CO
- IC50 [1]: 12.6 µM

SMILES: C[C@@H]1CN([C@H](C)CO)S(=O)(=O)c2ccc(/C=C/c3ccccc3)cc2O[C@@H]1CN(C)Cc1ccc(C(=O)O)cc1
- IC50 [1]: 153 µM

SMILES: CC(C)CC#Cc1ccc2c(c1)O[C@H](CN(C)Cc1ccc(C(=O)O)cc1)[C@@H](C)CN([C@H](C)CO)S2(=O)=O
- IC50 [1]: 42.9 µM

SMILES: CO[C@@H](CN(C)S(=O)(=O)c1cn(C)cn1)[C@@H](C)CN(C(=O)Nc1ccc(C(F)(F)F)cc1)[C@H](C)CO
- IC50 [1]: 24.7 µM

SMILES: C[C@H](CO)N1C[C@H](C)[C@@H](CN(C)Cc2ccc(-c3ccccc3)cc2)Oc2ccc(NC(=O)CCCN(C)C)cc2CC1=O
- IC50 [1]: 68.7 µM

SMILES: CO[C@H]1CN(C)C(=O)c2cc(NC(=O)Nc3ccc(Cl)c(Cl)c3)ccc2OC[C@H](C)NC[C@@H]1C
- IC50 [1]: 15.1 µM and 73 µM

SMILES: C[C@@H]1CN([C@@H](C)CO)S(=O)(=O)c2ccc(/C=C/c3ccccc3)cc2O[C@@H]1CN(C)Cc1ccc(C(=O)O)cc1
- IC50 [1]: > 240 µM (inactive)

SMILES: Cc1ccc(-c2ccc3c(c2)O[C@@H](CN(C)Cc2ccc(C(=O)O)cc2)[C@H](C)CN([C@@H](C)CO)S3(=O)=O)cc1
- IC50 [1]: 110 µM

SMILES: CO[C@H]1CN(C)C(=O)c2cc(NC(=O)Nc3ccc(Cl)c(Cl)c3)ccc2OC[C@@H](C)NC[C@@H]1C
- IC50 [1]: 14.5 µM and 17.6 µM

SMILES: CNC[C@H]1Oc2c(NC(=O)Nc3ccc(C(F)(F)F)cc3)cccc2C(=O)N([C@@H](C)CO)C[C@H]1C
- IC50 [1]: 36.7 µM

SMILES: O=C(NCC[C@H]1CC[C@H](NC(=O)C2CC2)[C@H](CO)O1)Nc1ccc(C(F)(F)F)cc1
- IC50 [1]: 28.4 µM
- activity change, negative = inhibition ([2]; at 120 µM (top of the series)): -1.84% (inactive)

SMILES: C[C@@H]1CN([C@@H](C)CO)C(=O)c2cccc(NC(=O)Nc3ccc4c(c3)OCO4)c2O[C@@H]1CN(C)Cc1ccc(Oc2ccccc2)cc1
- IC50 [1]: < 0.26 µM

SMILES: C[C@@H]1CN([C@@H](C)CO)C(=O)c2cccc(NC(=O)Nc3ccccc3)c2O[C@@H]1CN(C)Cc1ccc(Oc2ccccc2)cc1
- IC50 [1]: 1.2 µM and 0.402 µM and < 0.235 µM

SMILES: CO[C@H](CN(C)C(=O)C1CCOCC1)[C@H](C)CN(C(=O)Nc1ccc(C(F)(F)F)cc1)[C@H](C)CO
- IC50 [1]: 26.2 µM

SMILES: CO[C@@H]1CN(C)C(=O)c2cc(NC(=O)Nc3ccc(Cl)c(Cl)c3)ccc2OC[C@H](C)NC[C@@H]1C
- IC50 [1]: 17.8 µM and 12.5 µM

SMILES: C[C@H](CO)N1C[C@H](C)[C@@H](CN(C)Cc2ccc(C(=O)O)cc2)Oc2cc(/C=C/c3ccccc3)ccc2S1(=O)=O
- IC50 [1]: > 120 µM (inactive)

SMILES: CO[C@H]1CN(C)C(=O)c2ccc(NC(=O)c3nc4ccccc4s3)cc2OC[C@@H](C)N(Cc2ccncc2)C[C@@H]1C
- IC50 [1]: > 240 µM (inactive)

SMILES: Cc1ccc(-c2ccc3c(c2)O[C@@H](CN(C)Cc2ccc(C(=O)O)cc2)[C@H](C)CN([C@H](C)CO)S3(=O)=O)cc1
- IC50 [1]: 97 µM

SMILES: CO[C@@H]1CN(C)C(=O)c2cc(NC(=O)Nc3cc(Cl)cc(Cl)c3)ccc2OC[C@H](C)NC[C@@H]1C
- IC50 [1]: 37.8 µM and 35.6 µM

SMILES: C[C@@H]1CCCCO[C@@H](CN(C)CC2CCCCC2)[C@@H](C)CN([C@@H](C)CO)C(=O)c2cc(NC(=O)Nc3ccc(C(F)(F)F)cc3)ccc2O1
- IC50 [1]: 50.2 µM and 17.8 µM

SMILES: CO[C@H]1CN(C)C(=O)c2cc(NC(=O)Nc3ccc(Cl)c(Cl)c3)ccc2OC[C@H](C)NC[C@H]1C
- IC50 [1]: 15.7 µM and 26.5 µM

SMILES: CO[C@H]1CN(C)C(=O)c2ccc(NC(=O)Nc3ccc(Cl)c(Cl)c3)cc2OC[C@H](C)NC[C@H]1C
- IC50 [1]: 14.9 µM and 8.28 µM

SMILES: C[C@@H]1CN([C@@H](C)CO)C(=O)c2cc(NC(=O)Nc3cccc4ccccc34)ccc2O[C@@H](C)CCCCO[C@H]1CN(C)CC1CCCCC1
- IC50 [1]: 77.1 µM

SMILES: C[C@H](CO)N1C[C@H](C)[C@H](CN(C)C(=O)NC2CCCCC2)Oc2ncc(C#Cc3ccc(F)cc3)cc2C1=O
- IC50 [1]: 37.7 µM

SMILES: O=C(NCC[C@H]1CC[C@H](NC(=O)C2CC2)[C@@H](CO)O1)Nc1ccc(C(F)(F)F)cc1
- IC50 [1]: 15.4 µM

SMILES: C[C@@H]1CN([C@@H](C)CO)C(=O)c2ccccc2-c2ccccc2CO[C@H]1CN(C)Cc1ccccc1C(F)(F)F
- IC50 [1]: 19.5 µM

SMILES: C[C@@H]1CN([C@@H](C)CO)S(=O)(=O)c2ccc(/C=C/c3ccccc3)cc2O[C@H]1CN(C)Cc1ccc(C(=O)O)cc1
- IC50 [1]: 3.3 µM

SMILES: Cc1ccc(F)cc1S(=O)(=O)N[C@@H]1CCN(Cc2ccc(CC(C)C)cc2)C1
- IC50 [1]: 14.3 µM

SMILES: C[C@@H]1CN([C@@H](C)CO)C(=O)c2cccc(NC(=O)Nc3ccccc3)c2O[C@@H]1CN(C)Cc1ccc(C(F)(F)F)cc1
- IC50 [1]: 54.2 µM and 28 µM

SMILES: C[C@@H]1CN([C@@H](C)CO)C(=O)c2cccc(NC(=O)Nc3ccc4c(c3)OCO4)c2O[C@@H]1CN(C)Cc1ccc(-c2ccccc2)cc1
- IC50 [1]: 3.03 µM

SMILES: C[C@H]1CN([C@@H](C)CO)C(=O)c2ccccc2-c2ccccc2CO[C@@H]1CN(C)Cc1ccccc1C(F)(F)F
- IC50 [1]: 13.6 µM

SMILES: COc1ccc(S(=O)(=O)Nc2cccc3c2O[C@H](CN(C)Cc2ccc(Oc4ccccc4)cc2)[C@H](C)CN([C@@H](C)CO)C3=O)cc1
- IC50 [1]: 9.4 µM

SMILES: C[C@@H]1CN([C@@H](C)CO)C(=O)c2cccc(NC(=O)Nc3ccc(C(F)(F)F)cc3)c2O[C@@H]1CN(C)Cc1ccc(-c2ccccc2)cc1
- IC50 [1]: 0.3 µM and 1.52 µM and 0.654 µM

SMILES: COc1ccc(S(=O)(=O)Nc2ccc3c(c2)C(=O)N([C@@H](C)CO)C[C@H](C)[C@@H](CN(C)Cc2ccc4c(c2)OCO4)OCCCC[C@@H](C)O3)cc1
- IC50 [1]: 12 µM

SMILES: CO[C@H]1CN(C)C(=O)c2cc(NC(=O)Nc3cc(Cl)cc(Cl)c3)ccc2OC[C@@H](C)NC[C@H]1C
- IC50 [1]: 31.2 µM and 25.9 µM

SMILES: C[C@@H]1CN([C@@H](C)CO)C(=O)Cc2cc(NC(=O)CCCN(C)C)ccc2O[C@H]1CN(C)Cc1ccc(-c2ccccc2)cc1
- IC50 [1]: 31.4 µM

SMILES: CO[C@@H]1CN(C)C(=O)c2cc(NC(=O)Nc3cc(Cl)cc(Cl)c3)ccc2OC[C@H](C)NC[C@H]1C
- IC50 [1]: 15.8 µM and 36.4 µM

SMILES: COc1ccc(S(=O)(=O)Nc2cccc3c2O[C@H](CN(C)Cc2ccc(-c4ccccc4)cc2)[C@H](C)CN([C@@H](C)CO)C3=O)cc1
- IC50 [1]: 54.2 µM

SMILES: C[C@H](CO)N1C[C@H](C)[C@H](CN(C)C(=O)Nc2ccccc2)Oc2c(NC(=O)Nc3ccc(C(F)(F)F)cc3)cccc2C1=O
- IC50 [1]: 19.8 µM

SMILES: CO[C@H]1CN(C)C(=O)c2ccc(NC(=O)Nc3cc(Cl)cc(Cl)c3)cc2OC[C@H](C)NC[C@H]1C
- IC50 [1]: 25.6 µM and 69.2 µM

SMILES: C[C@@H]1CN([C@@H](C)CO)C(=O)c2cc(NC(=O)Nc3ccc(C(F)(F)F)cc3)ccc2O[C@@H](C)CCCCO[C@H]1CN(C)CC1CCCCC1
- IC50 [1]: 10.9 µM and 2.15 µM

SMILES: C[C@@H]1CN([C@@H](C)CO)C(=O)c2cccc(NS(=O)(=O)c3ccccc3)c2O[C@@H]1CN(C)Cc1ccc(-c2ccccc2)cc1
- IC50 [1]: 62.5 µM

SMILES: C[C@H]1CN([C@@H](C)CO)S(=O)(=O)c2ccc(C#CCC3CCCC3)cc2O[C@@H]1CN(C)C
- IC50 [1]: 72.5 µM

SMILES: C[C@@H]1CN([C@H](C)CO)S(=O)(=O)c2ccc(C#CCC3CCCC3)cc2O[C@H]1CN(C)C
- IC50 [1]: 69.3 µM

SMILES: Cc1noc(C)c1NC(=O)Nc1cccc2c1O[C@H](CN(C)Cc1ccc(Oc3ccccc3)cc1)[C@H](C)CN([C@@H](C)CO)C2=O
- IC50 [1]: 57.4 µM and 36.1 µM

SMILES: C[C@@H]1CCCCO[C@H](CN(C)Cc2ccc3c(c2)OCO3)[C@@H](C)CN([C@@H](C)CO)C(=O)c2cc(NS(=O)(=O)c3cccs3)ccc2O1
- IC50 [1]: 33.5 µM

SMILES: COc1ccc(NC(=O)Nc2cccc3c2O[C@H](CN(C)Cc2ccc(-c4ccccc4)cc2)[C@H](C)CN([C@@H](C)CO)C3=O)cc1
- IC50 [1]: 101 µM
